PubChem BioAssay AID1963870 (Molecular Pharmacology Branch, DTP, NCI, 2024)

Test system: 292921-168-R-J2-PDC KRAS tumor spheroid viability
Test: Anticancer human tumor 292921-168-R-J2-PDC patient-derived pancreatic carcinoma cell line growth inhibition [KRAS2]
Settings: spheroids with HUVEC and MSC; for IC50: curve of first compound; for viability, T/C: stronger effect = lower value
Text: Multicellular complex tumor spheroid response to RAS pathway inhibitors in combination with a targeted agents in patient-derived cell lines with oncogenic KRAS variants from multiple cancer types
A high-throughput screen of multi-cell type tumor spheroids was designed to identify active combinations of targeted small molecules and KRAS pathway inhibitors. Complex spheroids include a stromal component modeled by human endothelial cells (HUVEC) and fibroblasts modeled by human mesenchymal stem cells (MSCs). The concentration ranges selected for each drug and investigational agent were based upon clinically achievable concentrations if the clinical Cmax of the agent was known.
Compounds. The drugs and investigational agents: BI-3406 (NSC825286), BAY-293 (NSC824723), batoprotafib (TNO155; NSC825523), sotorasib (AMG 510; NSC818433), MRTX1257 (NSC819558), elimusertib (BAY 1895344; NSC800525), molibresib (GSK525762; NSC774829), temuterkib (LY3214996; NSC803410), venetoclax (NSC766270), alisertib (NSC759677), olaparib (NSC753686), talazoparib (NSC767125), erdafitinib (NSC781556), ipatasertib (NSC767898), cabozantinib (NSC761068), nintedanib (NSC756659), abemaciclib (NSC768073), docetaxel (NSC628503), trametinib (NSC758246), and sapanisertib (NSC764658) were obtained from the National Cancer Institute (NCI) Developmental Therapeutics Program Chemical Repository. The FDA-approved anticancer drug set is available from the Developmental Therapeutics Program. […] The stock solutions were prepared in dimethyl sulfoxide (DMSO, Sigma-Aldrich, St. Louis, MO, cat. D2650) at 800-fold the tested concentration and stored at -70 degrees C prior to their use. All drugs and investigational agents were tested over a range starting from a high concentration at or near the clinical Cmax and decreasing in half-log increments. If the clinical Cmax for an agent had not been determined, the highest concentration tested was 10 microM.
Cell Culture. All cells were maintained in an incubator at 37 degrees C and 5% CO2 with 95% humidity. The PDC lines were cultured according to standard operating procedures established by the NCI PDMR (https://pdmr.cancer.gov/sops/default.htm). Briefly, all PDCs were thawed and cultured in Matrigel-coated flasks prepared with a working solution of 1X Ham's F-12 nutrient mix, without supplementation (Invitrogen, Waltham, MA, cat. 11765054), 100 U/mL penicillin-streptomycin (Invitrogen, cat. 15140122), and 2.5% Matrigel (Corning Inc., Corning, NY, cat. 354248) for the first three passages. All PDCs were cultured in complete DMEM/F-12 media containing advanced DMEM/F-12 (Invitrogen, cat. 12634028), 4.9% defined fetal bovine serum, heat inactivated (HyClone Laboratories Inc., Logan, UT, cat. SH30070.03HI), 389 ng/mL hydrocortisone (Sigma-Aldrich, cat. H4001), 9.7 ng/mL human EGF recombinant protein (Invitrogen, cat. PHG0313), 23.4 microg/mL adenine (Sigma-Aldrich, cat. A2786), 97.3 U/mL penicillin-streptomycin (Invitrogen, cat. 15140122), 1.9 mM L-glutamine (Invitrogen, cat. 25030081), and 9.7 microM Y-27632 dihydrochloride (Tocris Bioscience, Bristol, United Kingdom, cat. 1254). The PDCs were cultured in complete DMEM/F12 media without 9.7 microM Y-27632 dihydrochloride for at least two passages prior to the screen. The established cell line HOP-62 was cultured in RPMI 1640 medium, HEPES (Invitrogen, cat. 22400105) with 10% defined fetal bovine serum (HyClone Laboratories Inc., cat. SH30070.03) and 2 mM L-glutamine (Invitrogen, cat. 25030081). The pooled donor HUVEC were cultured in endothelial cell growth medium 2 (PromoCell, Heidelberg, Germany, cat. C-22011) and the hMSC were cultured in mesenchymal stem cell growth medium 2 (PromoCell, cat. C-28009). For all experiments, HUVEC and hMSC were used at passages </=5, while the malignant cell lines were used at passages </=15. […]

[1] = second compound 0.0316 µM, first compound 0.0316 µM
[2] = second compound 0.0316 µM, first compound 0.1 µM
[3] = second compound 0.0316 µM, first compound 0.316 µM
[4] = second compound 0.0316 µM, first compound 1 µM
[5] = second compound 0.0316 µM, first compound 3.16 µM
[6] = second compound 0.0316 µM, first compound 10 µM
[7] = second compound 0.1 µM, first compound 0.0316 µM
[8] = second compound 0.1 µM, first compound 0.1 µM
[9] = second compound 0.1 µM, first compound 0.316 µM
[10] = second compound 0.1 µM, first compound 1 µM
[11] = second compound 0.1 µM, first compound 3.16 µM
[12] = second compound 0.1 µM, first compound 10 µM
[13] = second compound 0.316 µM, first compound 0.0316 µM
[14] = second compound 0.316 µM, first compound 0.1 µM
[15] = second compound 0.316 µM, first compound 0.316 µM
[16] = second compound 0.316 µM, first compound 1 µM
[17] = second compound 0.316 µM, first compound 3.16 µM
[18] = second compound 0.316 µM, first compound 10 µM
[19] = second compound 1 µM, first compound 0.0316 µM
[20] = second compound 1 µM, first compound 0.1 µM
[21] = second compound 1 µM, first compound 0.316 µM
[22] = second compound 1 µM, first compound 1 µM
[23] = second compound 1 µM, first compound 3.16 µM
[24] = second compound 1 µM, first compound 10 µM
[25] = second compound 3.16 µM, first compound 0.0316 µM
[26] = second compound 3.16 µM, first compound 0.1 µM
[27] = second compound 3.16 µM, first compound 0.316 µM
[28] = second compound 3.16 µM, first compound 1 µM
[29] = second compound 3.16 µM, first compound 3.16 µM
[30] = second compound 3.16 µM, first compound 10 µM
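Also: drug exposure lasted seven days after spheroids formed for three days.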
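For viability, T/C in this document: percent of DMSO vehicle control viability which is 100%.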

SMILES | IC50 (second compound 0.1 µM) | IC50 (second compound 0.316 µM) | IC50 (second compound 1 µM) | IC50 (second compound 3.16 µM) | viability, T/C [7] | viability, T/C [8] | viability, T/C [9] | viability, T/C [10] | viability, T/C [11] | viability, T/C [13] | viability, T/C [14] | viability, T/C [15] | viability, T/C [16] | viability, T/C [17] | viability, T/C [19] | viability, T/C [20] | viability, T/C [21] | viability, T/C [22] | viability, T/C [23] | viability, T/C [25] | also measured
COc1cc(Nc2ncc3c(n2)-c2ccc(Cl)cc2C(c2c(F)cccc2OC)=NC3)ccc1C(=O)O + C=CC(=O)N1CCN(c2nc(OCC3CCCN3C)nc3c2CCN(c2cccc4cccc(C)c24)C3)CC1CC#N | < 31.6 nM | < 31.6 nM | < 31.6 nM | < 31.6 nM | 24.8% | 25.7% | 26.8% | 27.2% | 23.5% | 18.8% | 17.9% | 23.5% | 23.3% | 21.1% | 11.2% | 10.8% | 14.9% | 15.4% | 14.2% | 0.22% | IC50 (second compound 0.0316 µM): < 31.6 nM; viability, T/C [1]: 28.8%; viability, T/C [2]: 25.6%; viability, T/C [3]: 28.7%; viability, T/C [4]: 29.4%; viability, T/C [5]: 26.1%; viability, T/C [6]: 17.1%; viability, T/C [12]: 15.9%; viability, T/C [18]: 14.4%; viability, T/C [24]: 10.3%; viability, T/C [26]: 0.2%; viability, T/C [27]: 0.13%; viability, T/C [28]: 1.99%; viability, T/C [29]: 0.44%; viability, T/C [30]: 0.41%
CC(C)NCC(C(=O)N1CCN(c2ncnc3c2C(C)CC3O)CC1)c1ccc(Cl)cc1 (stereo not given) + C=CC(=O)N1CCN(c2nc(OCC3CCCN3C)nc3c2CCN(c2cccc4cccc(C)c24)C3)CC1CC#N | > 10000 nM | 6010 nM | < 31.6 nM | < 31.6 nM | 85.2% | 78.6% | 85.3% | 79.3% | 74.4% | 71.5% | 68.5% | 65.1% | 69.2% | 59% | 36.7% | 28.8% | 28.9% | 32.1% | 28.1% | 0.1% | IC50 (second compound 0.0316 µM): > 10000 nM; viability, T/C [1]: 88%; viability, T/C [2]: 84.6%; viability, T/C [3]: 84.5%; viability, T/C [4]: 82%; viability, T/C [5]: 73.9%; viability, T/C [6]: 54.7%; viability, T/C [12]: 51.8%; viability, T/C [18]: 42.3%; viability, T/C [24]: 21%; viability, T/C [26]: 0.09%; viability, T/C [27]: 0.09%; viability, T/C [28]: 0.1%; viability, T/C [29]: 0.11%; viability, T/C [30]: 0.21%
CC(=O)OC12COC1CC(O)C1(C)C(=O)C(O)C3=C(C)C(OC(=O)C(O)C(NC(=O)OC(C)(C)C)c4ccccc4)CC(O)(C(OC(=O)c4ccccc4)C21)C3(C)C (stereo not given) + CNCc1ccccc1-c1csc(C(C)Nc2nc(C)nc3cc(OC)c(OC)cc23)c1 | < 10 nM | < 10 nM | < 10 nM | < 10 nM | 15.9% | 13.8% | 14.6% | 17.2% | 18.1% | 14.4% | 13% | 13% | 15.7% | 17.5% | 15% | 11.5% | 12.3% | 17.4% | 22.8% | 16.1% | IC50 (second compound 10 µM): < 10 nM; viability, T/C (second compound 0.1 µM, first compound 0.01 µM): 13.9%; viability, T/C (second compound 0.316 µM, first compound 0.01 µM): 15.8%; viability, T/C (second compound 1 µM, first compound 0.01 µM): 16.5%; viability, T/C (second compound 3.16 µM, first compound 0.01 µM): 0.1%; viability, T/C [26]: 0.07%; viability, T/C [27]: 0.03%; viability, T/C [28]: 0.08%; viability, T/C [29]: 19.4%; viability, T/C (second compound 10 µM, first compound 0.01 µM): 0.14%; viability, T/C (second compound 10 µM, first compound 0.0316 µM): 0.09%; viability, T/C (second compound 10 µM, first compound 0.1 µM): 0.06%; viability, T/C (second compound 10 µM, first compound 0.316 µM): 0.04%; viability, T/C (second compound 10 µM, first compound 1 µM): 0.08%; viability, T/C (second compound 10 µM, first compound 3.16 µM): 0.17%
